Measurements reported in patent publication US7947854B2, “Bis-cationic compounds and use thereof” (The University of Sydney, priority 2003, dated 2011).
Like-named read-outs stand apart in the source and are kept apart here.

Tests used:
[1] = test system: secreted phospholipase B (LPL/LPTA activities); assay: Radiometric assay, secreted LPL and LPTA activities (Lyso assay); type: biochemical, Cryptococcus neoformans H99
Experimental: (§1) Fungal isolates and media. […] Isolate H99 was kindly supplied by Dr. Gary Cox (Duke University Medical Center, Durham, N.C., USA), and subcultured onto Sabouraud dextrose agar (SDA) at 30° C.
(§2) Preparation of supernatants containing secreted phospholipase activities. Isolate H99 was grown to confluence on SDA in 16 cm diameter Petri dishes for 72 h at 30° C. in air. Cells scraped from 10-20 dishes were washed sequentially with isotonic saline and imidazole buffer (10 mM imidazole, 2 mM CaCl2, 2 mM Mg Cl2, 56 mM D-Glucose, made up in isotonic saline, pH 5.5), resuspended in a volume of this buffer of about 10% of the cell volume, and incubated for 24 h at 37° C. The cell-free supernatant was separated by centrifugation as previously described and stored at −70° C.
Secreted LPL and LPTA activities were measured simultaneously in a reaction mixture containing 1-[^14C]palmitoyl lyso-PC (25,000 dpm) and carrier lyso-PC (final concentration 200 μM) in assay buffer. The reaction time was […] with 1 μg of total protein and LPL activity was measured by the rate of loss of 1-[^14C]palmitoyl lyso-PC with release of radiolabelled fatty acids. LPTA activity was estimated from the rate of formation of radiolabelled PC.
(§3) All reactions were terminated by adding 0.5 mL of chloroform:methanol (2:1 v/v). The reaction products were extracted by the method as disclosed in Bligh, E. C. and W. J. Dyer. 1959 ‘A rapid method of total lipid extraction and purification.’ Can. J. Biochem. Physiol. 37:911-917, separated by TLC and quantified as previously described. In the case of PLC activity, the TLC plates were developed in petroleum ether (BP 60-80° C.): diethyl ether: acetic acid (90:15:1, v/v/v) instead of chloroform:methanol:water (65:25:4, v/v/v).
(§4) Preparation of inhibitors and use in assays. The following compounds were tested (for structures, see FIG. 2): compound 1, 1,12-bis(tributylphosphonium)dodecane dibromide (Fluka AG, Buchs, Switzerland); compound 2, 1,10-bis(tributylammonium)-decane dibromide; compound 3, 1,12-bis(tributylammonium)do-decane dibromide (both synthesised in-house); compound 4, 1,10-bis(trimethylammonium)decane dibromide [“decamethonium”] (Sigma, St. Louis Mo., USA). All compounds were prepared as stock solutions of 700 μM in assay buffer containing 5 mM EDTA, which was then diluted serially with buffer to obtain solutions of 70, 7, 0.7 and 0.07 μM. In each assay, 45 μL of these solutions was used, and the final volume of 125 μL was made up of substrate, enzyme and buffer. The radiometric assay was carried out as above. Inhibition was calculated as the percent of substrates (DPPC or Lyso-PC) remaining in the case of PLB and LPL activities, or of DPPC produced, in the case of the LPTA activity. The amounts converted, or produced, in the inhibitor-free control were normalised to 100%, and the inhibition calculated against it. All assays were done in triplicate.
(§5) Under these conditions only PLB, LPL and LPTA activities (both secreted and cell-associated) were measured. Initially, compounds deemed to be potential inhibitors were assayed at 25 and 250 μM. Those showing some inhibition were then also assayed at 2.5 and 0.25 μM.

[2] = test system: Cryptococcus neoformans ATCC 90112; assay: Antifungal susceptibility testing, microdilution MIC; type: cell-based
Experimental: (§6) Antifungal susceptibility testing. The antifingal activity of the compounds was measured by a standard microdilution method. […] The fungal strains tested included Cryptococcus neoformans H99, Cryptococcus neoformans ATCC 90112 and Candida albicans ATCC 10231. All tests were performed in duplicate.
(§7) A range of cationic compounds were assayed for antifungal activity in a standardised serial dilution sensitivity test against C. neoformans ([…]) and C. Albicans (ATCC 10231).

[3] = test system: Candida albicans ATCC 10231; assay: as above; type: cell-based
Experimental: as §6, §7

[4] = test system: secreted phospholipase B (PLB activity); assay: Radiometric assay, secreted PLB activity; type: biochemical, Cryptococcus neoformans H99
Experimental: as §1, §2
Radiometric assay method for phospholipases. Enzyme activities were measured as described previously in a final volume of 125 μL at 37° C. For the determination of secreted PLB activity, carrier dipalmitoyl phosphatidylcholine (DPPC, final concentration 800 μM) and 1,2-di[1-^14C] palmitoyl phosphatidylcholine (20,000 dpm) were dried under nitrogen and suspended in 125 mM imidazole acetate buffer (assay buffer, pH 4.0) by sonication using a Branson 450 sonifier. The reaction time was 22 min, using 1 μg total protein and PLB activity was determined by the rate of decrease of the radiolabelled PC substrate, with appearance of the label in free fatty acid. This assay also simultaneously allows for the determination of phospholipase A, C and D activities. These activities were measured by the appearance of radiolabel from PC in Lyso PC, diacylglycerol and phosphatidic acid, respectively.
as §3, §4, §5

[5] = test system: erythrocyte; type: cell-based; details: 37° C., 1 h
Experimental: Human blood was collected in 10 mL Vacutainer tubes containing potassium-EDTA as anticoagulant. The blood from each vacutainer was transferred to a 50 mL centrifuge tube and the cells washed three times with calcium- and magnesium-free phosphate buffered saline (PBS) (Gibco) by centrifugation at 2000×g for 15 min. The third supernatant was clear and colourless. Cells were stored in PBS for up to two weeks. The cell suspension in PBS (0.5 mL) was mixed with a stock solution of test substance (0.5 mL) at the appropriate concentration (final erythrocyte concentration of approx. 0.5×10^9 per mL). The mixtures were incubated at 37° C. for 1 h with gentle shaking, then centrifuged at 2000×g for 10 min. The supernatant was diluted 10-fold with PBS and the optical density measured at 540 nm. The values for 0% and 100% lysis were determined by incubating cells with PBS or 0.1% Triton X-100 (in water), respectively. Assays were carried out in triplicate.

[6] = Table 7, read-out: MIC (μM) Crypto. (ATCC 90112)
[7] = Table 7, read-out: MIC (μM) C. alb. (10231)
[8] = Candida albicans, ATCC10231, Table 7, read-out: MIC (μM) C. alb. (10231)
[9] = Cryptococcus neoformans, ATCC90112, read-out: MIC (μM) Crypto. (ATCC 90112)
[10] = Candida albicans, ATCC10231, read-out: MIC (μM) C. alb. (10231)
[11] = Cryptococcus neoformans, ATCC90112, Table 7, read-out: MIC (μM) Crypto. (ATCC 90112)

Structure (SMILES)	Lyso assay (% inhibition) LPL ([1]; 25 μM)	Lyso assay (% inhibition) LPTA ([1]; 25 μM)	Lyso assay (% inhibition) LPL ([1]; 250 μM)	Lyso assay (% inhibition) LPTA ([1]; 250 μM)	MIC [2, 6]	MIC [3, 7]	PLB assay (% inhibition) ([4]; 25 μM)	PLB assay (% inhibition) ([4]; 250 μM)	MIC [3, 8]	also measured
CC(C)CC[N+](CCCCCCCCCCCC[N+](CCC(C)C)(CCC(C)C)CCC(C)C)(CCC(C)C)CCC(C)C.[Cl-].[Cl-] [1,12-Bis-(triisopentylammonium)dodecane dichloride]	250 μM = 11% 25 μM = 11% 2.5 μM = n.d. 0.25 μM = n.d.	0%	250 μM = 11% 25 μM = 11% 2.5 μM = n.d. 0.25 μM = n.d.	6%	4.4 µM	2.2 µM	68%	63%		PLB assay (% inhibition) ([4]; 0.25 μM): 0%; PLB assay (% inhibition) ([4]; 2.5 μM): 9%; PLB assay (% inhibition) ([4]; 6.7 μM): 38%; PLB assay (% inhibition) ([4]; 12.5 μM): 56%
CCCCC[N+](CCCCC)(CCCCC)CCCCCCCCCCCC[N+](CCCCC)(CCCCC)CCCCC.[Br-].[Br-] [1,12-Bis-(tripentylammonium)dodecane dibromide]	250 μM = 10% 25 μM = 10% 2.5 μM = n.d. 0.25 μM = n.d.	0%	250 μM = 10% 25 μM = 10% 2.5 μM = n.d. 0.25 μM = n.d.	2.4%	5.5 µM	5.5 µM	73%	63%		PLB assay (% inhibition) ([4]; 0.25 μM): 0%; PLB assay (% inhibition) ([4]; 2.5 μM): 12%
CC[N+](CC)(CC)CCOc1cccc(OCC[N+](CC)(CC)CC)c1OCC[N+](CC)(CC)CC [Gallamine triethiodide, reference compound]									≥ 350 µM	Haemolytic assay (%) ([5]; 3.5 μM): 350 μM = 0% 175 μM = 0% 88 μM = 0% 35 μM = 0% 3.5 μM = 0%; Haemolytic assay (%) ([5]; 35 μM): 350 μM = 0% 175 μM = 0% 88 μM = 0% 35 μM = 0% 3.5 μM = 0%; Haemolytic assay (%) ([5]; 88 μM): 350 μM = 0% 175 μM = 0% 88 μM = 0% 35 μM = 0% 3.5 μM = 0%; Haemolytic assay (%) ([5]; 175 μM): 350 μM = 0% 175 μM = 0% 88 μM = 0% 35 μM = 0% 3.5 μM = 0%; Haemolytic assay (%) ([5]; 350 μM): 350 μM = 0% 175 μM = 0% 88 μM = 0% 35 μM = 0% 3.5 μM = 0%
CCCCCC[N+](CCCCCC)(CCCCCC)CCCCCCCCCCCC[N+](CCCCCC)(CCCCCC)CCCCCC.[Cl-].[Cl-] [1,12-Bis-(trihexylammonium)dodecane dichloride]					17.5 µM	8.8 µM				
C[N+]1(C)CCOC(O)(c2ccc(-c3ccc(C4(O)C[N+](C)(C)CCO4)cc3)cc2)C1 (stereo not drawn) [Hemicholinium dibromide, reference compound]									≥ 350 µM	Haemolytic assay (%) ([5]; 3.5 μM): 350 μM = 0% 175 μM = 0% 88 μM = 0% 35 μM = 0% 3.5 μM = 0%; Haemolytic assay (%) ([5]; 35 μM): 350 μM = 0% 175 μM = 0% 88 μM = 0% 35 μM = 0% 3.5 μM = 0%; Haemolytic assay (%) ([5]; 88 μM): 350 μM = 0% 175 μM = 0% 88 μM = 0% 35 μM = 0% 3.5 μM = 0%; Haemolytic assay (%) ([5]; 175 μM): 350 μM = 0% 175 μM = 0% 88 μM = 0% 35 μM = 0% 3.5 μM = 0%; Haemolytic assay (%) ([5]; 350 μM): 350 μM = 0% 175 μM = 0% 88 μM = 0% 35 μM = 0% 3.5 μM = 0%
CCCCCCCC[N+](CCCCCCCC)(CCCCCCCC)CCCCCCCCCCCC[N+](CCCCCCCC)(CCCCCCCC)CCCCCCCC.[Cl-].[Cl-] [1,12-Bis-(trioctylammonium)dodecane dichloride]					35 µM	100 µM				
CC[N+](CC)(CC)CCCCCCCCCCCC[N+](CC)(CC)CC [1,12-Bis-(triethylammonium)dodecane dibromide]										MIC [2, 9]: 11 µM; MIC [3, 10]: 22 µM
CC(C)C[N+](CCCCCCCCCCCC[N+](CC(C)C)(CC(C)C)CC(C)C)(CC(C)C)CC(C)C.[Br-].[Br-] [1,12-Bis-(triisobutylammonium)dodecane dibromide]	250 μM = 0% 25 μM = 0% 2.5 μM = n.d. 0.25 μM = n.d.	4%	250 μM = 0% 25 μM = 0% 2.5 μM = n.d. 0.25 μM = n.d.	5%			250 μM = 0% 25 μM = 0% 2.5 μM = n.d. 0.25 μM = n.d.	250 μM = 0% 25 μM = 0% 2.5 μM = n.d. 0.25 μM = n.d.		MIC (μM) Crypto. (ATCC 90112) ([2]; Table 7): ≧350 μM; MIC (μM) C. alb. (10231) ([3]; Table 7): ≧350 μM
C[N+]1(CCCCCCCCCCCC[N+]2(C)CCCC2)CCCC1 [C12-bis-N-methyl-pyro. dibromide, 1,12-Bis-(1-methylpyrrolidinium)dodecane dibromide]	250 μM = 0% 25 μM = 0% 2.5 μM = n.d. 0.25 μM = n.d.	250 μM = 0% 25 μM = 0% 2.5 μM = n.d. 0.25 μM = n.d.	250 μM = 0% 25 μM = 0% 2.5 μM = n.d. 0.25 μM = n.d.	250 μM = 0% 25 μM = 0% 2.5 μM = n.d. 0.25 μM = n.d.			0%	9%		MIC [2, 9]: 175 µM; MIC [3, 10]: 175 µM
CCCC[N+](CCCC)(CCCC)CCCCCCCCCCC[N+](CCCC)(CCCC)CCCC [1,11-Bis-(tributylammonium)undecane dichloride]									44 µM	MIC [2, 11]: 22 µM
CCCCCCCCCCCCCCCC[N+](CCCC)(CCCC)CCCC									1.4 µM	Haemolytic assay (%) ([5]; 3.5 μM): 2.5%; Haemolytic assay (%) ([5]; 35 μM): 4%; Haemolytic assay (%) ([5]; 88 μM): 19%; Haemolytic assay (%) ([5]; 175 μM): 75%; Haemolytic assay (%) ([5]; 350 μM): 100%
C[N+]1(CCCCCCCCCCCC[N+]2(C)CCOCC2)CCOCC1 [1,12-Bis-(1-methylmorpholinium)dodecane dibromide]									88 µM	MIC [2, 11]: 44 µM
